Reference: ChEMBL document CHEMBL5042513, “Discovery of 2H-chromone-4-one based sulfonamide derivatives as potent retinoic acid receptor-related orphan receptor γt inverse agonists” (Eur J Med Chem, 2022)
Each block holds one compound with its values, some of them ahead of it.

Experiments:
[1] = Lipophilicity, logD of the compound at pH 7.4; details: buffer
[2] = Metabolic stability in human liver microsomes assessed as parent compound remaining level at 10 uM in presence of NADPH incubated for 60 mins by HPLC-MS/MS analysis
[3] = in vitro; details: human, liver microsomes
Description: Metabolic stability in human liver microsomes assessed as intrinsic clearance at 10 uM in presence of NADPH by HPLC-MS/MS analysis

[4] = target: T1, Nuclear receptor ROR-gamma (Homo sapiens, UniProt P51449); experiment: Displacement of BODIPY from APC-labelled RORgammat LBD (unknown origin) incubated for 1 hrs by binding assay
T1 sequence (P51449 whole entry): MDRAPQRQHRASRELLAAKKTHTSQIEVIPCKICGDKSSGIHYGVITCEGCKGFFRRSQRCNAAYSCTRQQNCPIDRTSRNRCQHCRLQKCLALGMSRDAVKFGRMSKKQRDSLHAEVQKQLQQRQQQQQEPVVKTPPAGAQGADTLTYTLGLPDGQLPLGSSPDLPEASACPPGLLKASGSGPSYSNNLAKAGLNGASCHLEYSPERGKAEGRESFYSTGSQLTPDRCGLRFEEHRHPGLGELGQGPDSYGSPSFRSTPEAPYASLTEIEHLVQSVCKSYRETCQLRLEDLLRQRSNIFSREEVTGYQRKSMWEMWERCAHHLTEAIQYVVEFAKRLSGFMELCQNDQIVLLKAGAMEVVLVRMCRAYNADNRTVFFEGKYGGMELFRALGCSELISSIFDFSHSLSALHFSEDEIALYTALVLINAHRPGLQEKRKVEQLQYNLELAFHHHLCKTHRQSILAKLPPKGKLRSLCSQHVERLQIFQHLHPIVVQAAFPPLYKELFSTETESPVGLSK

[5] = target: T1, Nuclear receptor ROR-gamma
Description: Inverse agonist activity at RORgammat (unknown origin) transfected in human Jurkat cells assessed as inhibition of RORgammat transcriptional activity incubated for 8 hrs by luciferase reporter gene assay

[6] = in vitro; details: human, liver microsomes; remark: listed apart in the source
Description: Metabolic stability in human liver microsomes assessed as half life at 10 uM in presence of NADPH by HPLC-MS/MS analysis

[7] = in vivo; details: mouse, iv, 0.3 mg/kg
[8] = in vivo; details: mouse, po, 1 mg/kg
[9] = in vivo; details: mouse, iv, 0.3 mg/kg; remark: listed apart in the source
[10] = in vivo; details: mouse, po, 1 mg/kg; remark: listed apart in the source
[11] = in vivo; details: mouse, iv, 0.3 mg/kg; remark: listed apart in the source
[12] = in vivo; details: mouse, po, 1 mg/kg; remark: listed apart in the source
[13] = in vivo; details: mouse, iv, 0.3 mg/kg; remark: listed apart in the source
[14] = in vivo; details: mouse, iv, 0.3 mg/kg; remark: listed apart in the source
[15] = in vivo; details: mouse, iv, 0.3 mg/kg; remark: listed apart in the source
[16] = in vivo; details: mouse, po, 1 mg/kg; remark: listed apart in the source
[17] = in vivo; details: mouse, iv, 0.3 mg/kg; remark: listed apart in the source
[18] = in vivo; details: mouse, po, 1 mg/kg; remark: listed apart in the source
[19] = in vivo; details: mouse, po, 1 mg/kg; remark: listed apart in the source
[20] = species: Mus musculus; experiment: animal or person; details: BALB/c, po, 312 h, read-out: INH
Description: Protection against imiquimod-induced psoriasis model of BALB/c mouse assessed as inhibition of psoriasis clinical score at 10 mg/kg, po administered for 13 days

[21] = species: Mus musculus; experiment: animal or person; details: BALB/c, po, 312 h, read-out: INH; remark: listed apart in the source
Description: Protection against imiquimod-induced psoriasis model of BALB/c mouse assessed as inhibition of psoriasis clinical score at 20 mg/kg, po administered for 13 days

logD [1]: 3.97
SMILES: CCc1ccc(N(CC(F)(F)F)S(=O)(=O)c2ccc3c(c2)C(=O)CC(C2CCOCC2)O3)cc1 (stereo unspecified)

logD [1]: 3.16
SMILES: CC(C)CN(c1ccc(C#N)cc1)S(=O)(=O)c1ccc2c(c1)C(=O)CC(C1CCOCC1)O2 (stereo unspecified)

logD [1]: 2.21
SMILES: CCc1ccc(N(CC(C)C)S(=O)(=O)c2ccc3c(c2)C(=O)CC(C2CCNCC2)O3)cc1 (stereo unspecified)

logD [1]: 2.75
SMILES: Cc1ccc(NS(=O)(=O)c2ccc3c(c2)C(=O)CC(C2CCOCC2)O3)c(C)c1 (stereo unspecified)

logD [1]: 4.01
SMILES: CC(C)CN(c1cc2ccccc2s1)S(=O)(=O)c1ccc2c(c1)C(=O)CC(C1CCOCC1)O2 (stereo unspecified)

logD [1]: 4.97
SMILES: CC(C)CN(c1ccc(C(C)(C)C)cc1)S(=O)(=O)c1ccc2c(c1)C(=O)CC(C1CCOCC1)O2 (stereo unspecified)

logD [1]: 4.1
SMILES: CCc1ccc(N(CC2CCC2)S(=O)(=O)c2ccc3c(c2)C(=O)CC(C2CCOCC2)O3)cc1 (stereo unspecified)

remaining at 1 h, 10 µM [2]: 0.2% | CLint scaled at 10 µM [3]: 1610 mL/min/kg
SMILES: CCc1ccc(N(CC(C)C)S(=O)(=O)c2ccc(OCC3CCOCC3)c(CO)c2)cc1 [GSK2981278]

logD [1]: 6.09
SMILES: CCc1ccc(N(CC(C)C)S(=O)(=O)c2ccc3cc(OCC4CCOCC4)c(C(=O)OC)cc3c2)cc1

logD [1]: 2.67
SMILES: CCc1ccc(NS(=O)(=O)c2ccc3c(c2)C(=O)CC(C2CCOCC2)O3)cc1 (stereo unspecified)

IC50 [4]: > 10 µM | logD [1]: 3.77 | IC50 [5]: > 10 µM
SMILES: CCc1ccc2c(c1)CC(C)CN2S(=O)(=O)c1ccc2c(c1)C(=O)CC(C1CCOCC1)O2 (stereo unspecified)

logD [1]: 3.5
SMILES: CC(C)CN(c1cccc(F)c1)S(=O)(=O)c1ccc2c(c1)C(=O)CC(C1CCOCC1)O2 (stereo unspecified)

logD [1]: 3.64
SMILES: CCc1ccc(N(CC(C)C)S(=O)(=O)c2ccc3c(c2)C(=O)N(C2CCOCC2)C3)cc1

logD [1]: 4.5
SMILES: CCc1ccc(N(CC(C)C)S(=O)(=O)c2ccc3oc(C4CCOCC4)cc(=O)c3c2)cc1

remaining at 1 h, 10 µM [2]: 4.5% | logD [1]: 3.86 | half-life at 10 µM [6]: 6.2 min | CLint scaled at 10 µM [3]: 202 mL/min/kg
SMILES: Cc1ccc(N(C2CCC2)S(=O)(=O)c2ccc3c(c2)C(=O)CC(C2CCOCC2)O3)c(C)c1 (stereo unspecified)

logD [1]: 4.71
SMILES: CCc1ccc(N(CC(C)C)S(=O)(=O)c2ccc3c(c2)C(=O)CC(C2(C)CCOCC2)O3)cc1 (stereo unspecified)

logD [1]: 4.84
SMILES: CCc1ccc(N(CC(C)C)S(=O)(=O)c2ccc(OCC3CCOCC3)c3c2CCCC3=O)cc1

logD [1]: 3.31
SMILES: CCc1ccc(N(CC(C)C)S(=O)(=O)c2ccc3c(c2)C(=O)CC(C2CCN(S(C)(=O)=O)CC2)O3)cc1 (stereo unspecified)

logD [1]: 4.84
SMILES: CCc1ccc(N(Cc2ccccc2)S(=O)(=O)c2ccc3c(c2)C(=O)CC(C2CCOCC2)O3)cc1 (stereo unspecified)

IC50 [4]: > 10 µM | logD [1]: 0.32 | IC50 [5]: > 10 µM
SMILES: CCS(=O)(=O)c1ccc(CNS(=O)(=O)c2ccc3c(c2)C(=O)CC(C2CCOCC2)O3)nc1 (stereo unspecified)

logD [1]: 3.44
SMILES: CC(C)CN(c1ccccc1F)S(=O)(=O)c1ccc2c(c1)C(=O)CC(C1CCOCC1)O2 (stereo unspecified)

logD [1]: 6.34
SMILES: CCc1ccc(N(CC(C)C)S(=O)(=O)c2ccc3cc(OCC4CCOCC4)c(C(=O)OCC4CCOCC4)cc3c2)cc1

IC50 [4]: > 10 µM | logD [1]: 1.77 | IC50 [5]: > 10 µM
SMILES: CCc1ccc(N(CC(C)C)S(=O)(=O)c2ccc3cc(OCC4CCOCC4)c(C(=O)O)cc3c2)cc1

IC50 [4]: > 10 µM | logD [1]: 2.72 | IC50 [5]: > 10 µM
SMILES: CCc1ccc(N(C2COC2)S(=O)(=O)c2ccc3c(c2)C(=O)CC(C2CCOCC2)O3)cc1 (stereo unspecified)

logD [1]: 3.62
SMILES: CC(C)CN(c1ccc(F)cc1F)S(=O)(=O)c1ccc2c(c1)C(=O)CC(C1CCOCC1)O2 (stereo unspecified)

remaining at 1 h, 10 µM [2]: 11.5% | logD [1]: 3.6 | half-life at 10 µM [6]: 12.8 min | CLint scaled at 10 µM [3]: 98.5 mL/min/kg
SMILES: CC(C)CN(c1ccc(N(C)C)cc1)S(=O)(=O)c1ccc2c(c1)C(=O)CC(C1CCOCC1)O2 (stereo unspecified)

remaining at 1 h, 10 µM [2]: 23% | logD [1]: 3.77 | half-life at 10 µM [6]: 22.3 min | CLint scaled at 10 µM [3]: 55.8 mL/min/kg
SMILES: CCc1ccc(N(CC2CC2)S(=O)(=O)c2ccc3c(c2)C(=O)CC(C2CCOCC2)O3)cc1 (stereo unspecified)

IC50 [4]: > 10 µM | logD [1]: 5.1 | IC50 [5]: > 10 µM
SMILES: CCc1ccc(N(CC(C)C)S(=O)(=O)c2ccc3c(c2)C(=O)CC(C2CCN(C(=O)OC(C)(C)C)CC2)O3)cc1 (stereo unspecified)

logD [1]: 5.1
SMILES: CCc1ccc(N(CC(C)C)S(=O)(=O)c2ccc3cc(OCC4CCOCC4)c(CO)cc3c2)cc1

logD [1]: 4.53
SMILES: CCc1ccc(N(CC(C)C)S(=O)(=O)c2ccc3c(c2)C(=O)CC(CC2CCOCC2)O3)cc1 (stereo unspecified)

logD [1]: 4.93
SMILES: CCc1ccc(N(CC(C)C)S(=O)(=O)c2ccc3c(c2)C(=O)CC(C(C)C2CCOCC2)O3)cc1 (stereo unspecified)

remaining at 1 h, 10 µM [2]: 0.2% | logD [1]: 3.48 | half-life at 10 µM [6]: 0.7 min | CLint scaled at 10 µM [3]: 1760 mL/min/kg
SMILES: CC(C)CN(c1ccc(F)cc1)S(=O)(=O)c1ccc2c(c1)C(=O)CC(C1CCOCC1)O2 (stereo unspecified)

logD [1]: 5.13
SMILES: CCc1ccc(N(CC(C)C)S(=O)(=O)c2ccc3c(c2)C(=O)CC(C2CCN(C(=O)C4CCCC4)CC2)O3)cc1 (stereo unspecified)

logD [1]: 4.03
SMILES: CC(C)CN(C1CCc2ccc(F)cc21)S(=O)(=O)c1ccc2c(c1)C(=O)CC(C1CCOCC1)O2 (stereo unspecified)

logD [1]: 4.75
SMILES: CCc1ccc(N(CC(C)C)S(=O)(=O)c2ccc3c(c2)C(=O)CC(C2CCN(S(=O)(=O)C4CCCC4)CC2)O3)cc1 (stereo unspecified)

logD [1]: 5.02
SMILES: CCc1ccc(N(CC(C)C)S(=O)(=O)c2ccc3c(c2)C(F)CC(C2CCOCC2)O3)cc1 (stereo unspecified)

logD [1]: 4.32
SMILES: CC(C)CN(Cc1ccccc1C(F)(F)F)S(=O)(=O)c1ccc2c(c1)C(=O)CC(C1CCOCC1)O2 (stereo unspecified)

logD [1]: 3.78
SMILES: CCc1ccc(N(C2CCC2)S(=O)(=O)c2ccc3c(c2)C(=O)CC(C2CCOCC2)O3)cc1 (stereo unspecified)

remaining at 1 h, 10 µM [2]: 50.2% | logD [1]: 3.04 | half-life at 24 h [7]: 56.4 min | half-life at 24 h [8]: 88.2 min | Tmax at 24 h [9]: 61.2 min | Tmax at 24 h [10]: 95.4 min | Cmax at 24 h [11]: 75 ng/mL | Cmax at 24 h [12]: 82 ng/mL | Vd at 24 h [13]: 1.62 L/kg | clearance at 24 h [14]: 30.2 mL/min/kg | AUC(0-t) at 24 h [15]: 135 ng·h/mL | AUC(0-t) at 24 h [16]: 212 ng·h/mL | AUC(0-inf) at 24 h [17]: 140 ng·h/mL | AUC(0-inf) at 24 h [18]: 219 ng·h/mL | bioavailability at 24 h [19]: 47% | half-life at 10 µM [6]: 59 min | CLint scaled at 10 µM [3]: 21.1 mL/min/kg
SMILES: Cc1nc(N2CCOCC2)ccc1N(CC(C)C)S(=O)(=O)c1ccc2c(c1)C(=O)CC(C1CCOCC1)O2 (stereo unspecified)
inhibition in vivo at 10 mg/kg [20]: 54.5% | inhibition in vivo at 20 mg/kg [21]: 77.7%

logD [1]: 3.5
SMILES: O=C1CC(C2CCOCC2)Oc2ccc(S(=O)(=O)N3CCCC3c3ccccc3C(F)(F)F)cc21 (stereo unspecified)
